Reference: patent US6703212B1, “Methods and kits for diagnosing Alzheimer's disease from a blood sample” (priority 1997, dated 2004)

Tested on: PKC
Assay: Fluorescence properties of fim-1 with liposomes, purified PKC and erythrocytes
Format: biochemical
Conditions: fim-1 500 nM, Ex 485 nm
Procedure: Liposomes prepared from lipidic extracts of brain and a commercial preparation of purified a PKC are used, then erythrocytes are added.
This preparation is incubated for 20 minutes at ambient temperature, in the presence of fim-1 (500 nM) in a PBS buffer (150 mM NaCl, 10 mM NaHPO4, 5 mM D-glucose, 500 μm CaCl2, pH 7.4.
After washing, centrifugation and resuspension in PBS 1/150, the fluorescence emission spectrum is recorded between […], with an excitation wavelength of 485 nm.
The spectrum obtained is standardized relative to the fluorescence intensity measured with the probe alone, then broken down into the 3 elementary gaussian distributions represented in FIG. 1. An emission maximum is noted at 518, 535 and 586 nm respectively. The interactions between fim-1 and the membrane lipids as well as the PKC is expressed by a slight shift of the spectrum between […] for the lipids and an increase in fluorescence between 510 and 530 nm, and beyond 570 nm for the PKC.

Compound	effect on fluorescence intensity of fim-1 (addition of inhibitor)	increase of quantal yield of fim-1 fluorescence (factor) (in the presence of activator)
CN[C@@H]1C[C@H]2O[C@@](C)([C@@H]1OC)n1c3ccccc3c3c4c(c5c6ccccc6n2c5c31)C(=O)NC4 [staurosporine]	inhibition in the fluorescence intensity	
CCCCCCCCCCCCCC(=O)O[C@@H]1[C@@H](C)[C@@]2(O)[C@@H](C=C(CO)C[C@]3(O)C(=O)C(C)=C[C@@H]23)[C@@H]2C(C)(C)[C@]12OC(C)=O [phorbol ester, phorbol myristate acetate]		5000
